This passage reports IC50 results from patent publication US12234221B2, “Pyridine carboxamide compounds for inhibiting NAV1.8” (Lieber Institute, Inc., priority 2018, dated 2025).

T1 sequence (Q9Y5Y9 whole entry): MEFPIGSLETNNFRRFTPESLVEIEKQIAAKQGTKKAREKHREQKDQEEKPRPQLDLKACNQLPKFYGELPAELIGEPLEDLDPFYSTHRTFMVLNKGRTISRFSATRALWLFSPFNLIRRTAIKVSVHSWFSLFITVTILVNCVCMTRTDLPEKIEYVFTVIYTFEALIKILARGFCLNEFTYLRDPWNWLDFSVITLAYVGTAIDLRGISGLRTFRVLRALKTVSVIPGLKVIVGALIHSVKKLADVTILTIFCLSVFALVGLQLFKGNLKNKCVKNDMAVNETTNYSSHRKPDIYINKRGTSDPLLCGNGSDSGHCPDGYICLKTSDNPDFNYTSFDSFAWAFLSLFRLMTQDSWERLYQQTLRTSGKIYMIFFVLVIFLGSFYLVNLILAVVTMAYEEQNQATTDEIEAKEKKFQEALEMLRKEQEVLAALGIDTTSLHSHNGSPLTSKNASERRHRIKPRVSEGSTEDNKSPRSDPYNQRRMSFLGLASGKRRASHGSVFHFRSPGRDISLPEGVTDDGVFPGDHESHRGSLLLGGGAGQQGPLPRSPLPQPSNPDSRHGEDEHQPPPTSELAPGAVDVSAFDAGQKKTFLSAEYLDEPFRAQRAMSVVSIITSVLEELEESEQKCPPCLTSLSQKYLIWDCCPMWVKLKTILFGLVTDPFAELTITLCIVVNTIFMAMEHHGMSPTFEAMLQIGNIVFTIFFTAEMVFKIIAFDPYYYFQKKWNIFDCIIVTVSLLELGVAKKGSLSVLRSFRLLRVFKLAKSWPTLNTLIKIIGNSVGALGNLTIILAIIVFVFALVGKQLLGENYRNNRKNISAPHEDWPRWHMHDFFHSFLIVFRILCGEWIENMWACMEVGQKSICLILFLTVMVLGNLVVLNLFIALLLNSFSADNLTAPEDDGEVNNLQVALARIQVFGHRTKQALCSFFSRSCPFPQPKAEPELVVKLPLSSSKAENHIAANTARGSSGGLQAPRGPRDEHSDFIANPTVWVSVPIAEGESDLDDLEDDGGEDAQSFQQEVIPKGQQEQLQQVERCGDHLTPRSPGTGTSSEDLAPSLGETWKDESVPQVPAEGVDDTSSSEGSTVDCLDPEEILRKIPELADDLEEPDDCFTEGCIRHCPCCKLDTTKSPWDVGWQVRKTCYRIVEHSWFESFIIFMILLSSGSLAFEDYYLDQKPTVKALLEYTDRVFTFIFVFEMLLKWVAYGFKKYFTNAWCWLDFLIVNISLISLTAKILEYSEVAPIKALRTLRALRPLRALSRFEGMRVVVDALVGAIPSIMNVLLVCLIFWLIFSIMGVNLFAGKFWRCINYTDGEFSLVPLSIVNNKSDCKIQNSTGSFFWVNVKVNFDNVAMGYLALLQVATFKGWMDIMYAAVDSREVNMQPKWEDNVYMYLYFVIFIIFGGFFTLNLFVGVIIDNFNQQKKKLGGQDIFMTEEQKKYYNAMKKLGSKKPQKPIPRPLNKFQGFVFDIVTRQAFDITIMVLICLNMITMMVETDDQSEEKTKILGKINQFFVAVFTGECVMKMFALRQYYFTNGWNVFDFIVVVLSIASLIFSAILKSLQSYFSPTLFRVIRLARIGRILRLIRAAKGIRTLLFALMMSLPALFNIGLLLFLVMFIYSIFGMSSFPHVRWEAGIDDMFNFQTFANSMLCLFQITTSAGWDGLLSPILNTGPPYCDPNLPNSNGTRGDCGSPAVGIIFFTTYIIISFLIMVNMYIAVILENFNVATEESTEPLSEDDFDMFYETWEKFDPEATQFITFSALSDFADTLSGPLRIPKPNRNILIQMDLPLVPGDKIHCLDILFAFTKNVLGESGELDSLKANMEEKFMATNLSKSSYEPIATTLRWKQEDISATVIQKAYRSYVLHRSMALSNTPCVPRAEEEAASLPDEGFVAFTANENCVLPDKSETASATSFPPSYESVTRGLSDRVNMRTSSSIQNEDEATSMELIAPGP

This assay addresses T1, human Nav1.8 (hNav1.8) ion channel (Homo sapiens, UniProt Q9Y5Y9).
T1 construct: expressed in transfected cells; host or cells: HEK293
The assay can be described thus: Nav1.8 channel inhibition, estimated IC50 (one or more of: fluorescence inhibition assay, PatchXpress, IonFlux HT automated patch clamp). The format is cell-based. The following applies: HEK293 cells stably expressing hNav1.8; method used per compound not stated; read-out: Activity range (estimated IC50). As to the method: The ability of pyridine carboxamide derivatives exemplified above to inhibit the Nav1.8 channel was determined using one or more of the methods described below.
HEK Nav1.8 β1/β2 Stably Expressing Cell Line
A HEK293 cell line stably expressing the human Nav1.8 (hNav1.8) ion channel with β1/β2 subunits was constructed. The cell line is suitable for IC50 determination in fluorescence and electrophysiological based assays. It is also suitable to form mechanism of action pharmacology studies in electrophysiological assays. HEK293 Nav 1.8 cells are grown as adherent monolayers in DMEM/high glucose media, 10% fetal bovine serum, Na pyruvate (2 mM), Hepes (10 mM) with selection agents G418 (400 mg/L) and puromycin (0.5 mg/L) at 37 degrees C., 10% CO2.
Nav 1.8 Fluorescence Inhibition Assay
Compounds were made up to or supplied as a 10-mM stock solution using DMSO as the vehicle. Concentration-response curves were generated using a Matrix multichannel pipettor. Compound source plates were made by diluting 10 mM compound stocks to create 500 μM (100×) solutions in DMSO in 96-well v-bottom plates. Compounds were then serially diluted in 100% DMSO to generate a 5 point, 4-fold dilution scheme dose response curve. 2 μL of the 100× dose response curves was then added to preincubation and stimulation assay plates. 100 μL of pre-incubation buffer and 200 μL of stimulation buffer were then added to the plates resulting in a final assay test concentration range of 5 μM to 0.02 μM with a final DMSO concentration of 1%.
On the day of assay, plates were washed to remove cell culture media using 2K EBSS buffer (135 mM NaCl, 2 mM KCl, 5 mM Glucose, 2 mM CaCl2), 1 mM MgCl2, 10 mM HEPES, pH 7.4). The Na-sensitive fluorescent dye, Asante Natrium Green-2 (ANG-2) is incubated for 60 min to allow equilibration and then washed with 2K EBSS. Plates are the transferred to a fluorescence plate reader (FLIPR™, Molecular Devices) for fluorescence measurement using an excitation wavelength of 490 nm and an emission wavelength of 565 nm. Compounds are pre-incubated at for 5 min at final test concentration in the presence of ouabain (30 μM) to inhibit Na+ efflux through Na+/K+ exchanger. Following the pre-incubation phase, hNav1.8 channels are stimulated with 10 μM of the pyrethroid deltamethrin to prevent channel inactivation. The assay was run for 15 min with vehicle and 30 μM tetracaine serving as negative and positive controls, respectively. The peak change in fluorescence relative to negative and positive control wells was calculated and fit with a logistic equation to determine IC50.
PatchXpress Nav 1.8 Inhibition Assay
HEK-Nav1.8 β1/β2 cells were recorded in whole cell patch-clamp using the PatchXpress automated patch clamp platforms (Molecular Devices). Cells suspensions were obtained by trypsinization of adherent monolayers, followed by gentle rocking for minimally 30 min. Compounds were prepared from 10 mM DMSO stocks.
Nav1.8 channel variants were evaluated using Protocol 1 (FIG. 2) in which cells were initially voltage clamped at a holding potential of −100 mV to maintain Nav1.8 in a closed resting state. After current amplitude becomes stable, the mid-point voltage of steady state inactivation was determined for each cell using a series of 5 sec conditioning steps to increasingly depolarized voltages (−100 to 0 mV) The holding potential was then reset to a voltage that produces ˜50% inactivation (Vhalf−set automatically via PatchXpress scripts) so that closed and inactivated channel inhibition can be assessed. Protocol 1 was run at a frequency of 0.1 Hz until current amplitude is steady (automatically determined by PatchXpress scripts). The effect of test reagent on Nav current amplitude was monitored using custom PatchXpress stability scripts which determines the timing of compound addition and washout. Data were processed and analyzed using DataXpress 2.0 (Molecular Devices). […]
By IC50 is commonly meant the concentration at which inhibition is half-maximal. In the case of `CS(=O)(=O)c1cccc(NC(=O)c2cc(C(F)(F)F)cnc2Oc2cc(F)c(F)c(F)c2)c1` [Example 55, N-(3-methylsulfonyl-phenyl)-5-(trifluoromethyl)-2-(3,4,5-trifluorophenoxy)pyridine-3-carboxamide], the IC50 is 500 to 1000 nM.
As to `CS(=O)(=O)c1cccc(NC(=O)c2cc(C(F)(F)F)cnc2Oc2cc(Cl)cc(Cl)c2)c1` [Example 56, 2-(3,5-dichlorophenoxy)-N-(3-methylsulfonyl-phenyl)-5-(trifluoromethyl)pyridine-3-carboxamide], the IC50 was over 1000 nM.
Regarding `CS(=O)(=O)c1cccc(NC(=O)c2cc(C(F)(F)F)cnc2Oc2ccc(C(F)(F)F)nc2)c1` [Example 57, N-(3-methylsulfonyl-phenyl)-5-(trifluoromethyl)-2-[[6-(trifluoromethyl)-3-pyridyl]oxy]pyridine-3-carboxamide], the IC50 was over 1000 nM.
For the compound `CS(=O)(=O)c1cccc(NC(=O)c2cc(C(F)(F)F)cnc2Oc2cccc3scnc23)c1` [Example 58, 2-(1,3-benzothiazol-4-yloxy)-N-(3-methylsulfonyl-phenyl)-5-(trifluoromethyl)pyridine-3-carboxamide], the IC50 was over 1000 nM.
As for `CS(=N)(=O)c1cccc(NC(=O)c2cc(C(F)(F)F)cnc2Oc2ccc(OC(F)F)cc2)c1` (stereo not shown) [Example 59, 2-[4-(difluoromethoxy)phenoxy]-N-[3-(methylsulfonimidoyl)phenyl]-5-(trifluoromethyl)pyridine-3-carboxamide], the IC50 was under 500 nM.
With `CS(=N)(=O)c1cccc(NC(=O)c2cc(C(F)(F)F)cnc2Oc2ccc(F)cc2Cl)c1` (stereo not shown) [Example 60, 2-(2-chloro-4-fluoro-phenoxy)-N-[3-(methylsulfonimidoyl)phenyl]-5-(trifluoromethyl)pyridine-3-carboxamide], the IC50 was under 500 nM.
To `COc1ccc(Oc2ncc(C(F)(F)F)cc2C(=O)Nc2cccc(S(C)(=N)=O)c2)c(Cl)c1` (stereo not shown) [Example 61, 2-(2-chloro-4-methoxy-phenoxy)-N-[3-(methylsulfonimidoyl)phenyl]-5-(trifluoromethyl)pyridine-3-carboxamide] belongs under 500 nM; to `CS(=N)(=O)c1cccc(NC(=O)c2cc(C(F)(F)F)cnc2Oc2ccccc2Cl)c1` (stereo not shown) [Example 62, 2-(2-chlorophenoxy)-N-[3-(methylsulfonimidoyl)phenyl]-5-(trifluoromethyl)pyridine-3-carboxamide], under 500 nM; to `O=C(Nc1ccnnc1)c1cc(C(F)(F)F)cnc1Oc1ccc(Cl)cc1Cl` [Example 63, 2-(2,4-dichlorophenoxy)-N-pyridazin-4-yl-5-(trifluoromethyl)pyridine-3-carboxamide], 500 to 1000 nM.
For the compound `O=C(Nc1ccnnc1)c1cc(C(F)(F)F)cnc1Oc1ccc(OC(F)F)cc1` [Example 64, 2-[4-(difluoromethoxy)phenoxy]-N-pyridazin-4-yl-5-(trifluoromethyl)pyridine-3-carboxamide], the IC50 is over 1000 nM.
To `COc1ccc(Oc2ncc(C(F)(F)F)cc2C(=O)Nc2ccnnc2)c(Cl)c1` [Example 65, 2-(2-chloro-4-methoxy-phenoxy)-N-pyridazin-4-yl-5-(trifluoromethyl)pyridine-3-carboxamide] belongs over 1000 nM; to `COc1cc(F)ccc1Oc1nc(C(F)(F)F)ccc1C(=O)Nc1cccc(S(C)(=O)=O)c1` [Example 66, 2-(4-fluoro-2-methoxy-phenoxy)-N-(3-methylsulfonylphenyl)-6-(trifluoromethyl)pyridine-3-carboxamide], under 500 nM; to `COc1cc(F)ccc1Oc1cc(C(F)(F)F)ncc1C(=O)Nc1cccc(S(C)(=O)=O)c1` [Example 67, 4-(4-fluoro-2-methoxy-phenoxy)-N-(3-methylsulfonylphenyl)-6-(trifluoromethyl)pyridine-3-carboxamide], under 500 nM.
`COc1cc(F)ccc1Oc1cc(C(F)(F)F)ncc1C(=O)Nc1cccc([S+](C)[O-])c1` (stereo not shown) [Example 68, 4-(4-fluoro-2-methoxy-phenoxy)-N-(3-methylsulfinylphenyl)-6-(trifluoromethyl)pyridine-3-carboxamide]: the IC50 was under 500 nM.
`COc1cc(F)ccc1Oc1cc(C(F)(F)F)ncc1C(=O)Nc1cc(S(C)(=O)=O)ccc1F` [Example 69, 4-(4-fluoro-2-methoxy-phenoxy)-N-(2-fluoro-5-methylsulfonyl-phenyl)-6-(trifluoromethyl)pyridine-3-carboxamide]: the IC50 is under 500 nM.
With `CN=S(C)(=O)c1cccc(NC(=O)c2cnc(C(F)(F)F)cc2Oc2ccc(F)cc2OC)c1` (stereo not shown) [Example 70, N-[3-(N,S-dimethylsulfonimidoyl)phenyl]-4-(4-fluoro-2-methoxy-phenoxy)-6-(trifluoromethyl)pyridine-3-carboxamide], the IC50 was under 500 nM.
With `COc1cc(F)ccc1Oc1cc(C(F)(F)F)ncc1C(=O)Nc1ccnnc1` [Example 71, 4-(4-fluoro-2-methoxy-phenoxy)-N-pyridazin-4-yl-6-(trifluoromethyl)pyridine-3-carboxamide], the IC50 is under 500 nM.
As to `COc1cc(F)ccc1Oc1cc(C(F)(F)F)ncc1C(=O)Nc1ccncc1` [Example 72, 4-(4-fluoro-2-methoxy-phenoxy)-N-(4-pyridyl)-6-(trifluoromethyl)pyridine-3-carboxamide], the IC50 was under 500 nM.
With `CN(C)c1cc(NC(=O)c2cnc(C(F)(F)F)cc2Oc2ccc(OC(F)(F)F)cc2Cl)ccn1` [Example 73, 4-[2-chloro-4-(trifluoromethoxy)phenoxy]-N-[2-(dimethylamino)-4-pyridyl]-6-(trifluoromethyl)pyridine-3-carboxamide], the IC50 is over 1000 nM.
As for `CS(=O)(=O)c1cccc(NC(=O)c2cnc(C(F)(F)F)cc2Oc2ccc(OC(F)(F)F)cc2Cl)c1` [Example 74, 4-[2-chloro-4-(trifluoromethoxy)phenoxy]-N-(3-methylsulfonylphenyl)-6-(trifluoromethyl)pyridine-3-carboxamide], the IC50 is under 500 nM.
As to `C[S+]([O-])c1cccc(NC(=O)c2cnc(C(F)(F)F)cc2Oc2ccc(OC(F)(F)F)cc2Cl)c1` (stereo not shown) [Example 75, 4-[2-chloro-4-(trifluoromethoxy)phenoxy]-N-(3-methylsulfinylphenyl)-6-(trifluoromethyl)pyridine-3-carboxamide], the IC50 is under 500 nM.
To `CN(C)S(=O)(=O)c1cccc(NC(=O)c2cnc(C(F)(F)F)cc2Oc2ccc(OC(F)(F)F)cc2Cl)c1` [Example 76, 4-[2-chloro-4-(trifluoromethoxy)phenoxy]-N-[3-(dimethylsulfamoyl)phenyl]-6-(trifluoromethyl)pyridine-3-carboxamide] belongs 500 to 1000 nM.
On to `CS(=O)(=O)c1ccc(F)c(NC(=O)c2cnc(C(F)(F)F)cc2Oc2ccc(OC(F)(F)F)cc2Cl)c1` [Example 77, 4-[2-chloro-4-(trifluoromethoxy)phenoxy]-N-(2-fluoro-5-methylsulfonyl-phenyl)-6-(trifluoromethyl)pyridine-3-carboxamide], for which the IC50 was under 500 nM.
In the case of `O=C(Nc1cccnc1)c1cnc(C(F)(F)F)cc1Oc1ccc(OC(F)(F)F)cc1Cl` [Example 78, 4-[2-chloro-4-(trifluoromethoxy)phenoxy]-N-(3-pyridyl)-6-(trifluoromethyl)pyridine-3-carboxamide], the IC50 is under 500 nM.
The same measure for `O=C(Nc1ccncc1)c1cnc(C(F)(F)F)cc1Oc1ccc(OC(F)(F)F)cc1Cl` [Example 79, 4-[2-chloro-4-(trifluoromethoxy)phenoxy]-N-(4-pyridyl)-6-(trifluoromethyl)pyridine-3-carboxamide]: under 500 nM.
